This is an account of results in paper PMC6270837, “Preparation and Biological Properties of Ring-Substituted Naphthalene-1-Carboxanilides” (Molecules, 2014).

Entries after “also recorded” stand apart in the source; their conditions may differ.

This data set has as its system human monocytic leukemia THP-1 cell line. Nature of the data set: In vitro cytotoxicity assay (LDH). As to the method:
Human monocytic leukemia THP-1 cells were obtained from the European Collection of Cell Cultures (ECACC, Salisbury, UK; Methods of characterization: DNA Fingerprinting (Multilocus probes) and isoenzyme analysis). These cells were routinely cultured in RPMI 1640 (Lonza, Verviers, Belgium) medium supplemented with 10% fetal bovine serum (FBS, Sigma-Aldrich, St. Louis, MO, USA), 2% L-glutamine, 1% penicillin and streptomycin (Lonza) at 37 °C with 5% CO2. Cells were passaged at approximately one-week intervals. Cells were routinely tested for the absence of mycoplasma (Hoechst 33258 staining method). The tested compounds were dissolved in DMSO (Sigma-Aldrich) and added in five increasing concentrations to the cell suspension in the culture medium. The maximum concentration of DMSO in the assays never exceeded 0.1%. Subsequently, the cells were incubated for 24 h at 37 °C with 5% CO2 to various compound concentrations ranging from […] in RPMI 1640 medium. Cell toxicity was determined using a Cytotoxicity Detection Kit^PLUS Lactate dehydrogenase (LDH) assay kit (Roche Diagnostics, Mannheim, Germany) according to the manufacturer’s instructions, as described previously. For LDH assays, cells were seeded into 96-well plates (5 × 10^4 cells/well in 100 μL culture medium) in triplicate in serum-free RPMI 1640 medium, and measurements at 492 nm wavelength (Synergy 2 Multi-Mode Microplate Reader, BioTek, Winooski, VT, USA) were taken 24 h after the treatment with tested compounds. The median lethal dose values, LD50, were deduced through the production of a dose-response curve. All data were evaluated using GraphPad Prism 5.00 software (GraphPad Software, San Diego, CA, USA).
LDH Test Principle: The LDH activity is determined by a coupled enzymatic reaction, whereby the tetrazolium salt INT is reduced to formazan. An increase in the amount of dead or plasma membrane damaged cells results in an increase of LDH enzyme activity in the culture supernatant. This increase in the amount of enzyme activity in the supernatant directly correlates to the amount of formazan formed during a limited time period.

Take `Cc1ccc(NC(=O)c2cccc3ccccc23)cc1` [Compound 3c, N-(4-Methylphenyl)naphthalene-1-carboxamide]: the LD50 (human, 24 h) is over 30 µmol/L. Further, under “treatment with 30 μmol/L”, the “lethal effect / toxicity on THP-1 cells” value is reported as “did not lead to significant lethal effect; also recorded: insignificant toxicity”.
